According to patent publication US10457707B2, “Substituted urea depsipeptide analogs as activators of the CLPP endopeptidase” (priority 2015, dated 2019):
*1 amine or outer side, *2 acyl side, *3 side chain or, on linkers, in order; H or OH if unused. Where a SMILES comes first, the peptide text is derived from it. Bridges are numbered along the chain shown (N, C = ends). [ ]: non-standard residue; d: D form. The star is where a group is joined. ξ: configuration not given here. NH(1,3-benzodioxol-5-yl) = c1cc2c(cc1N*)OCO2; Phe(3,5-F2) = N[C@@H](Cc1cc(F)cc(F)c1)C(=O)O; NH(1-Me-indolin-5-yl) = CN1CCc2cc(N*)ccc21; Morpholine(3S-CO) = O=C(O)[C@@H]1COCCN1; Pro(4S-Me) = C[C@@H]1CN[C@H](C(=O)O)C1; NH(4-Cl-2-F-phenyl) = Fc1cc(Cl)ccc1N*; Pro(4R-Me) = C[C@H]1CN[C@H](C(=O)O)C1; NH(3,4-Me2-phenyl) = Cc1ccc(N*)cc1C; NMeaThr = CN[C@H](C(=O)O)[C@H](C)O; Hyp = O=C(O)[C@@H]1C[C@@H](O)CN1; NH(4-Et-phenyl) = CCc1ccc(N*)cc1; NMeT = CN[C@H](C(=O)O)[C@@H](C)O; Heptenoyl(2E) = CCCC/C=C/C(=O)*; NH(4-Me-phenyl) = Cc1ccc(N*)cc1; ξNMeThr = CNC(C(=O)O)[C@@H](C)O; aThr = C[C@H](O)[C@H](N)C(=O)O; Pip = O=C(O)[C@@H]1CCCCN1; NMeA = CN[C@@H](C)C(=O)O; X1 = N#Cc1cc(N*)ccc1F; CO = O=C([*:1])[*:2]

These molecules were tested against T1, Sa-ClpP (Staphylococcus aureus, UniProt Q2G036) (assay: Sa-ClpP casein-BODIPY ClpP activation assay, method variant not marked in Table 5). Conditions: not given.
T1 construct: made in house; host or cells: E. coli BL21(DE3)
T1 sequence (Q2G036 1-195): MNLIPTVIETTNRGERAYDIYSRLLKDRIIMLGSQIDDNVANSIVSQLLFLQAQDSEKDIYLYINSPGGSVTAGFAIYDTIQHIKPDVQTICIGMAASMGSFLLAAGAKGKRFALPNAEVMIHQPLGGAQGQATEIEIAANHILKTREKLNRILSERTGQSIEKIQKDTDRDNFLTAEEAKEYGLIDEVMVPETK
Type: biochemical, S. aureus
How it was run: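 EC50 for activation derived by dose-response fitting of casein digestion rates, run in triplicate. Conditions: 37° C, pH 8 buffer with 200 mM KCl and 1 mM TCEP, 10 μM Sa-ClpP, 25 μg/ml BODIPY FL casein, compound at 0-1000 μM; signal at 485/528 nm followed 45 min.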
With C[C@@H]1C[C@H]2C(=O)OC[C@H](NC(=O)[C@H](Cc3cc(F)cc(F)c3)NC(=O)Nc3ccc4c(c3)OCO4)C(=O)N3C[C@H](O)C[C@H]3C(=O)N3CCOC[C@H]3C(=O)N[C@@H](C)C(=O)N2C1 [Compound 318, (S)-2-(3-(benzo[d][1,3]dioxol-5-yl)ureido)-3-(3,5-difluorophenyl)-N-((6aS,8R,12S,15aS,17R,21S,23aS)-8-hydroxy-17,21-dimethyl-6,11,15,20,23-pentaoxooctadecahydro-6H,11H,15H-[1,4]oxazino[3,4-i]dipyrrolo[2,1-c:2′,1′-l][1]oxa[4,7,10,13]tetraazacyclo-hexadecin-12-yl)propanamide] ({NH(1,3-benzodioxol-5-yl)-CO}-[Phe(3,5-F2)]S[Hyp][Morpholine(3S-CO)]A[Pro(4R-Me)]; ester 2-C) the EC50 was 460 ± 60 nM.
C[C@@H]1C[C@H]2C(=O)O[C@@H](C)[C@H](NC(=O)[C@H](Cc3cc(F)cc(F)c3)NC(=O)Nc3ccc(F)c(C#N)c3)C(=O)N3CCC[C@H]3C(=O)N3CCCC[C@H]3C(=O)N[C@@H](C)C(=O)N2C1 [Compound 324, (S)-2-(3-(3-cyano-4-fluorophenyl)ureido)-3-(3,5-difluorophenyl)-N-((2R,6S,8aS,14aS,20S,21S,23aS)-2,6,21-trimethyl-5,8,14,19,23-pentaoxooctadecahydro-1H,5H,14H,19H-pyrido[2,1-i]dipyrrolo[2,1-c:2′,1′-l][1]oxa[4,7,10,13]tetraazacyclo-hexadecin-20-yl)propanamide] ({X1-CO}-[Phe(3,5-F2)][aThr]P[Pip]A[Pro(4R-Me)]; ester 2-C) was tested, and the EC50 was 500 ± 30 nM.
C[C@@H]1C[C@H]2C(=O)OC[C@H](NC(=O)[C@H](Cc3cc(F)cc(F)c3)NC(=O)Nc3ccc4c(c3)OCO4)C(=O)N3C[C@H](O)C[C@H]3C(=O)N3CCCCC3C(=O)N[C@@H](C)C(=O)N2C1 (stereo partly drawn) [Compound 325, (S)-2-(3-(benzo[d][1,3]dioxol-5-yl)ureido)-3-(3,5-difluorophenyl)-N-((2R,6S,8aR,14aS,16R,20S,23aS)-16-hydroxy-2,6-dimethyl-5,8,14,19,23-pentaoxooctadecahydro-1H,5H,14H,19H-pyrido[2,1-i]dipyrrolo[2,1-c:2′,1′-l][1]oxa[4,7,10,13]tetraazacyclo-hexadecin-20-yl)propanamide] was tested, and the EC50 was 350 ± 20 nM.
Work on C[C@@H]1C[C@H]2C(=O)O[C@@H](C)[C@H](NC(=O)[C@H](Cc3cc(F)cc(F)c3)NC(=O)Nc3ccc(Cl)cc3F)C(=O)N3C[C@H](O)C[C@H]3C(=O)N3CCOC[C@H]3C(=O)N[C@@H](C)C(=O)N2C1 [Compound 316, (S)-2-(3-(4-chloro-2-fluorophenyl)ureido)-3-(3,5-difluorophenyl)-N-((6aS,8R,12S,13S,15aS,17R,21S,23aS)-8-hydroxy-13,17,21-trimethyl-6,11,15,20,23-pentaoxooctadecahydro-6H,11H,15H-[1,4]oxazino[3,4-i]dipyrrolo[2,1-c:2′,1′-l][1]oxa[4,7,10,13]tetraazacyclo-hexadecin-12-yl)propanamide] ({NH(4-Cl-2-F-phenyl)-CO}-[Phe(3,5-F2)][aThr][Hyp][Morpholine(3S-CO)]A[Pro(4R-Me)]; ester 2-C) yielded an EC50 of 450 ± 20 nM.

Same assay, conditions: values without ** or † mark; assay variant not stated; read-out: ClpP Activation EC50
Work on CCc1ccc(NC(=O)N[C@@H](Cc2cc(F)cc(F)c2)C(=O)N[C@@H]2C(=O)N3CCC[C@H]3C(=O)N(C)[C@@H]([C@H](C)O)C(=O)N[C@@H](C)C(=O)N3C[C@@H](C)C[C@H]3C(=O)O[C@H]2C)cc1 [Compound 204, (S)-3-(3,5-difluorophenyl)-2-(3-(4-ethylphenyl)ureido)-N-((2S,6S,9S,11aS,17S,18S,20aS)-9-((S)-1-hydroxyethyl)-2,6,10,18-tetramethyl-5,8,11,16,20-pentaoxohexadecahydro-1H,5H,16H-dipyrrolo[2,1-c:2′,1′-l][1]oxa[4,7,10,13]tetraazacyclohexadecin-17-yl)propanamide] ({NH(4-Et-phenyl)-CO}-[Phe(3,5-F2)][aThr]P[NMeaThr]A[Pro(4S-Me)]; ester 2-C) yielded an EC50 of 350 ± 10 nM.
C[C@@H]1C[C@H]2C(=O)O[C@@H](C)[C@H](NC(=O)[C@H](Cc3cc(F)cc(F)c3)NC(=O)Nc3ccc4c(c3)CCN4C)C(=O)N3CCC[C@H]3C(=O)N(C)C([C@@H](C)O)C(=O)N[C@@H](C)C(=O)N2C1 (stereo partly drawn) [Compound 311, (S)-3-(3,5-difluorophenyl)-N-((2R,6S,9R,11aS,17S,18S,20aS)-9-((R)-1-hydroxyethyl)-2,6,10,18-tetramethyl-5,8,11,16,20-pentaoxohexadecahydro-1H,5H,16H-dipyrrolo[2,1-c:2′,1′-l][1]oxa[4,7,10,13]tetraazacyclohexadecin-17-yl)-2-(3-(1-methylindolin-5-yl)ureido)propanamide] ({NH(1-Me-indolin-5-yl)-CO}-[Phe(3,5-F2)][aThr]P[ξNMeThr]A[Pro(4R-Me)]; ester 2-C) gave an EC50 of 540 ± 20 nM.
Cc1ccc(NC(=O)N[C@@H](Cc2cc(F)cc(F)c2)C(=O)N[C@@H]2C(=O)N3C[C@H](O)C[C@H]3C(=O)N(C)[C@@H](C)C(=O)N[C@@H](C)C(=O)N3C[C@@H](C)C[C@H]3C(=O)O[C@H]2C)cc1 [Compound 214, (S)-3-(3,5-difluorophenyl)-N-((2S,6S,9S,11aS,13R,17S,18S,20aS)-13-hydroxy-2,6,9,10,18-pentamethyl-5,8,11,16,20-pentaoxohexadecahydro-1H,5H,16H-dipyrrolo[2,1-c:2′,1′-l][1]oxa[4,7,10,13]tetraazacyclohexadecin-17-yl)-2-(3-(p-tolyl)ureido)propanamide] ({NH(4-Me-phenyl)-CO}-[Phe(3,5-F2)][aThr][Hyp][NMeA]A[Pro(4S-Me)]; ester 2-C) was tested, and the EC50 was 1280 ± 30 nM.
C[C@@H]1C[C@H]2C(=O)O[C@@H](C)[C@H](NC(=O)[C@H](Cc3cc(F)cc(F)c3)NC(=O)Nc3ccc4c(c3)CCN4C)C(=O)N3C[C@H](O)C[C@H]3C(=O)N3CCOC[C@H]3C(=O)N[C@@H](C)C(=O)N2C1 [Compound 315, (S)-3-(3,5-difluorophenyl)-N-((6aS,8R,12S,13S,15aS,17R,21S,23aS)-8-hydroxy-13,17,21-trimethyl-6,11,15,20,23-pentaoxooctadecahydro-6H,11H,15H-[1,4]oxazino[3,4-i]dipyrrolo[2,1-c:2′,1′-l][1]oxa[4,7,10,13]tetraazacyclohexadecin-12-yl)-2-(3-(1-methylindolin-5-yl)ureido)propanamide] ({NH(1-Me-indolin-5-yl)-CO}-[Phe(3,5-F2)][aThr][Hyp][Morpholine(3S-CO)]A[Pro(4R-Me)]; ester 2-C) showed an EC50 of 1060 ± 40 nM.
Cc1ccc(NC(=O)N[C@@H](Cc2cc(F)cc(F)c2)C(=O)N[C@@H]2C(=O)N3CCC[C@H]3C(=O)N3CCCC[C@H]3C(=O)N[C@@H](C)C(=O)N3C[C@H](C)C[C@H]3C(=O)O[C@H]2C)cc1 [Compound 209, (S)-3-(3,5-difluorophenyl)-2-(3-(p-tolyl)ureido)-N-((2R,6S,8aS,14aS,20S,21S,23aS)-2,6,21-trimethyl-5,8,14,19,23-pentaoxooctadecahydro-1H,5H,14H,19H-pyrido[2,1-i]dipyrrolo[2,1-c:2′,1′-l][1]oxa[4,7,10,13]tetraazacyclohexadecin-20-yl)propanamide] ({NH(4-Me-phenyl)-CO}-[Phe(3,5-F2)][aThr]P[Pip]A[Pro(4R-Me)]; ester 2-C) was tested, and the EC50 was 360 ± 30 nM.
With Cc1ccc(NC(=O)N[C@@H](Cc2cc(F)cc(F)c2)C(=O)N[C@@H]2C(=O)N3C[C@H](O)C[C@H]3C(=O)N3CCCC[C@H]3C(=O)N[C@@H](C)C(=O)N3C[C@H](C)C[C@H]3C(=O)O[C@H]2C)cc1C [Compound 212, (S)-3-(3,5-difluorophenyl)-2-(3-(3,4-dimethylphenyl)ureido)-N-((2R,6S,8aS,14aS,16R,20S,21S,23aS)-16-hydroxy-2,6,21-trimethyl-5,8,14,19,23-pentaoxooctadecahydro-1H,5H,14H,19H-pyrido[2,1-i]dipyrrolo[2,1-c:2′,1′-l][1]oxa[4,7,10,13]tetraazacyclohexadecin-20-yl)propanamide] ({NH(3,4-Me2-phenyl)-CO}-[Phe(3,5-F2)][aThr][Hyp][Pip]A[Pro(4R-Me)]; ester 2-C) the EC50 was 500 ± 30 nM.
With CCCC/C=C/C(=O)N[C@@H](Cc1cc(F)cc(F)c1)C(=O)N[C@@H]1C(=O)N2CCC[C@H]2C(=O)N(C)[C@@H]([C@@H](C)O)C(=O)N[C@@H](C)C(=O)N2C[C@H](C)C[C@H]2C(=O)O[C@H]1C [Compound 308, (E)-N—((S)-3-(3,5-difluorophenyl)-1-(((2R,6S,9S,11aS,17S,18S,20aS)-9-((R)-1-hydroxyethyl)-2,6,10,18-tetramethyl-5,8,11,16,20-pentaoxohexadecahydro-1H,5H,16H-dipyrrolo[2,1-c:2′,1′-l][1]oxa[4,7,10,13]tetraazacyclohexadecin-17-yl)amino)-1-oxopropan-2-yl)hept-2-enamide] ({Heptenoyl(2E)}-[Phe(3,5-F2)][aThr]P[NMeT]A[Pro(4R-Me)]; ester 2-C) the EC50 was 280 ± 20 nM.
CCCC/C=C/C(=O)N[C@@H](Cc1cc(F)cc(F)c1)C(=O)N[C@@H]1C(=O)N2C[C@H](O)C[C@H]2C(=O)N2CCOC[C@H]2C(=O)N[C@@H](C)C(=O)N2C[C@H](C)C[C@H]2C(=O)O[C@H]1C [Compound 309, (E)-N—((S)-3-(3,5-difluorophenyl)-1-(((6aS,8R,12S,13S,15aS,17R,21S,23aS)-8-hydroxy-13,17,21-trimethyl-6,11,15,20,23-pentaoxooctadecahydro-6H,11H,15H-[1,4]oxazino[3,4-i]dipyrrolo[2,1-c:2′,1′-l][1]oxa[4,7,10,13]tetraazacyclohexadecin-12-yl)amino)-1-oxopropan-2-yl)hept-2-enamide] ({Heptenoyl(2E)}-[Phe(3,5-F2)][aThr][Hyp][Morpholine(3S-CO)]A[Pro(4R-Me)]; ester 2-C) showed an EC50 of 480 ± 20 nM.
